From patent publication US10112929B2, “Lactams as inhibitors of rock” (BRISTOL-MYERS SQUIBB COMPANY, priority 2015, dated 2018) come the findings set out here.
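Further: rho kinase enzyme reaction halted with EDTA, phospho- and non-phospho peptide separated for read-out, kinase activity inhibition derived across a dose-response series, DMSO under 2%.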

In the assay the target is ROCK2 (Homo sapiens (Human), UniProt O75116).
Sequence of ROCK2 (O75116 whole entry, species assumed): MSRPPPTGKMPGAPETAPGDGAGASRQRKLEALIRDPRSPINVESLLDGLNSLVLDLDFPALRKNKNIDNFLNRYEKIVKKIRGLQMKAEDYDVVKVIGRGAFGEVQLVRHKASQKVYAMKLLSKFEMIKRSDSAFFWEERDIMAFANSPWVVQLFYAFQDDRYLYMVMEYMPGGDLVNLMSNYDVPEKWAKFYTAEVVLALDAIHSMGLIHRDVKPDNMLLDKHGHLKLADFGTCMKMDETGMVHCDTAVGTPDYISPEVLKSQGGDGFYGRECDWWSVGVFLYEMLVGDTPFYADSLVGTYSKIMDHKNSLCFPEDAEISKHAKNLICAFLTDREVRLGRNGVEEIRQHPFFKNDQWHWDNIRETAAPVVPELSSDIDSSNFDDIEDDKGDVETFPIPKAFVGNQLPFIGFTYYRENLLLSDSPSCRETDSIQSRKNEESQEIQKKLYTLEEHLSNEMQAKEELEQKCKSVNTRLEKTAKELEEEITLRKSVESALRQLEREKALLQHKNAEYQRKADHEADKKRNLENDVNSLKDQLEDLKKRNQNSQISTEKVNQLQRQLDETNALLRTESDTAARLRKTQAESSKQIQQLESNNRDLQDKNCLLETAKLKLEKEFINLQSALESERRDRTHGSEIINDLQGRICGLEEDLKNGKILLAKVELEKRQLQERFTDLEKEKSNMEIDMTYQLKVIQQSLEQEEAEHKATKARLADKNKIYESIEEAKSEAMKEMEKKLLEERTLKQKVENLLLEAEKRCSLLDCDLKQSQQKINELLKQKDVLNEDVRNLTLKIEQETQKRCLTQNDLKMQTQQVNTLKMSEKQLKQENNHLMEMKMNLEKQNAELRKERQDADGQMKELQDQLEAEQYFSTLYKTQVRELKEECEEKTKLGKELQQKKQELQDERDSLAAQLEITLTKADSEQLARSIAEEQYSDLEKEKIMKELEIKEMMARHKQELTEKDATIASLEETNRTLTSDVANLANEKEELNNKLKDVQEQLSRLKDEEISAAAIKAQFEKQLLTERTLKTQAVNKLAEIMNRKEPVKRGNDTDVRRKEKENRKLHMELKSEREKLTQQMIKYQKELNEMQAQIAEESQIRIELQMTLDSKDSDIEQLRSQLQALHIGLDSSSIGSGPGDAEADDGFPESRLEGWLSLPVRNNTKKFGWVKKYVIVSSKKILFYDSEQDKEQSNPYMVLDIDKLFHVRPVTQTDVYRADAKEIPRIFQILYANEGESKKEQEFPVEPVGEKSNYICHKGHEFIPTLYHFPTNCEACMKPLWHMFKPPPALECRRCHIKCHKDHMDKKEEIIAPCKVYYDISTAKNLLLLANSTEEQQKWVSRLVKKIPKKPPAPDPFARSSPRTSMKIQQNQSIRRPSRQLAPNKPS
`COc1ccc(NC2CCN(c3ccc(-c4cn[nH]c4)c(OC)c3)C2=O)cc1F` (single isomer, unassigned) [Example 142, 3-((3-fluoro-4-methoxyphenyl)amino)-1-(3-methoxy-4-(1H-pyrazol-4-yl)phenyl) pyrrolidin-2-one] came in with an IC50 of 100 to 2200 nM.

`COc1cc(F)ccc1NC1CCN(c2ccc(-c3cn[nH]c3)c(OC)c2)C1=O` (single isomer, unassigned) [Example 144, 3-((4-fluoro-2-methoxyphenyl)amino)-1-(3-methoxy-4-(1H-pyrazol-4-yl)phenyl) pyrrolidin-2-one] had an IC50 of 100 to 2200 nM.

`COc1ccc(F)c(NC2CCN(c3ccc(-c4cn[nH]c4)c(OC)c3)C2=O)c1` (single isomer, unassigned) [Example 149, 3-((2-fluoro-5-methoxyphenyl)amino)-1-(3-methoxy-4-(1H-pyrazol-4-yl)phenyl) pyrrolidin-2-one] had an IC50 of 10 to 100 nM.

As to `COc1ccc(NC2CCN(c3ccc(-c4cn[nH]c4)c(OC)c3)C2=O)c(F)c1` (single isomer, unassigned) [Example 153, 3-((2-fluoro-4-methoxyphenyl)amino)-1-(3-methoxy-4-(1H-pyrazol-4-yl)phenyl) pyrrolidin-2-one], the IC50 was in the range of 100 to 2200 nM.

`COc1ccc(NC2CCN(c3ccc(-c4cn[nH]c4)c(Cl)c3)C2=O)cc1F` (single isomer, unassigned) [Example 157, 1-(3-chloro-4-(1H-pyrazol-4-yl)phenyl)-3 ((3-fluoro-4-methoxyphenyl)amino) pyrrolidin-2-one]: the IC50 is 100 to 2200 nM.

Molecule `COc1cc(F)cc(NC2CCN(c3ccc(-c4cn[nH]c4)c(Cl)c3)C2=O)c1` (single isomer, unassigned) [Example 159, 1-(3-chloro-4-(1H-pyrazol-4-yl)phenyl)-3 ((3-fluoro-5-methoxyphenyl)amino) pyrrolidin-2-one] had a concentration for half-maximal inhibition (IC50) of 100 to 2200 nM.

`COc1cc(NC2CCN(c3ccc(-c4cn[nH]c4)cc3Cl)C2=O)ccc1F` (single isomer, unassigned) [Example 163, 1-(2-chloro-4-(1H-pyrazol-4-yl)phenyl)-3-((4-fluoro-3-methoxyphenyl)amino) pyrrolidin-2-one] had an IC50 of 100 to 2200 nM.

In the case of `COc1cccc(NC2CCN(c3ccc(-c4cn[nH]c4)cc3Cl)C2=O)c1` (single isomer, unassigned) [Example 167, 1-(2-chloro-4-(1H-pyrazo1-4-yl)phenyl)-3 ((3-methoxyphenyl)amino)pyrrolidin-2-one], the half-inhibitory concentration (IC50) was in the range of 100 to 2200 nM.

`COc1cc(F)cc(NC2CCN(c3ccc(-c4cn[nH]c4)cc3Cl)C2=O)c1` (single isomer, unassigned) [Example 169, 1-(2-chloro-4-(1H-pyrazol-4-yl)phenyl)-3 ((3-fluoro-5-methoxyphenyl)amino) pyrrolidin-2-one] gave an IC50 of 100 to 2200 nM.

Molecule `COCc1cc(N2CCC(Nc3ccc(F)c(OC)c3)C2=O)ccc1-c1cn[nH]c1` (single isomer, unassigned) [Example 182, 3-((4-fluoro-3-methoxyphenyl)amino)-1-(3-(methoxymethyl)-4-(1H-pyrazol-4-yl)phenyl)pyrrolidin-2-one] showed an IC50 of 100 to 2200 nM.

On to `Cc1nc(N2CCC(Nc3cccc(OCC4CC4)c3)C2=O)ccc1-c1cn[nH]c1` (single isomer, unassigned) [Example 191, 3-((3-(cyclopropylmethoxy)phenyl)amino)-1-(6-methyl-5-(1H-pyrazol-4-yl)pyridin-2-yl)pyrrolidin-2-one], for which the IC50 lay in the range of 10 to 100 nM.

With `COc1cc(NC2CCN(c3ccc(-c4cn[nH]c4)c(C)n3)C2=O)ccc1F` (single isomer, unassigned) [Example 195, 3-((4-fluoro-3-methoxyphenyl)amino)-1-(6-methyl-5-(1H-pyrazol-4-yl)pyridin-2-yl)pyrrolidin-2-one], the IC50 lay within 10 to 100 nM.

Regarding `COc1cccc(NC2CCN(c3ccc(-c4cn[nH]c4)c(OC)n3)C2=O)c1` (single isomer, unassigned) [Example 197, 1-(6-methoxy-5-(1H-pyrazol-4-yl)pyridin-2-yl)-3-((3-methoxyphenyl)amino) pyrrolidin-2-one], the IC50 is less than 10 nM.

For `COc1cc(F)cc(NC2CCN(c3ccc(-c4cn[nH]c4)c(OC)n3)C2=O)c1` (single isomer, unassigned) [Example 199, 3-((3-fluoro-5-methoxyphenyl)amino)-1-(6-methoxy-5-(1H-pyrazol-4-yl)pyridin-2 yl)pyrrolidin-2-one], the IC50 is less than 10 nM.

Take `Cc1nc(N2CCC(Nc3cccc(OC(F)F)c3)C2=O)ccc1-c1cn[nH]c1` (single isomer, unassigned) [Example 202, 3-((3-(difluoromethoxy)phenyl)amino)-1-(6-methyl-5-(1H-pyrazol-4-yl)pyridin-2-yl)pyrrolidin-2-one]: the IC50 was 10 to 100 nM.

`CCc1cc(N2CCC(Nc3cccc(OC)c3)C2=O)ncc1-c1cn[nH]c1` (single isomer, unassigned) [Example 204, 1-(4-ethyl-5-(1H-pyrazol-4-yl)pyridin-2-yl)-3-((3-methoxyphenyl)amino) pyrrolidin-2-one] showed an IC50 of 100 to 2200 nM.

The molecule `COc1cc(NC2CCN(c3ccc(-c4cn[nH]c4)c(OC)n3)C2=O)ccc1F` (single isomer, unassigned) [Example 208, 3-((4-fluoro-3-methoxyphenyl)amino)-1-(6-methoxy-5-(1H-pyrazol-4-yl)pyridin-2-yl)pyrrolidin-2-one] showed an IC50 of less than 10 nM.

Molecule `COc1nc(N2CCC(Nc3cccc(OCC4CC4)c3)C2=O)ccc1-c1cn[nH]c1` (single isomer, unassigned) [Example 215, 3-((3-(cyclopropylmethoxy)phenyl)amino)-1-(6-methoxy-5-(1H-pyrazol-4-yl)pyridin-2-yl)pyrrolidin-2-one] returned an IC50 of less than 10 nM.

`CCOc1cccc(NC2CCN(c3ccc(-c4cn[nH]c4)c(OC)n3)C2=O)c1` (single isomer, unassigned) [Example 219, 3-((3-ethoxyphenyl)amino)-1-(6-methoxy-5-(1H-pyrazol-4-yl)pyridin-2-yl)pyrrolidin-2-one] registered an IC50 of less than 10 nM.

`COc1nc(N2CCC(Nc3cccc(OC(F)F)c3)C2=O)ccc1-c1cn[nH]c1` (single isomer, unassigned) [Example 221, 3-((3-(difluoromethoxy)phenyl)amino)-1-(6-methoxy-5-(1H-pyrazol-4-yl)pyridin-2-yl)pyrrolidin-2-one] gave an IC50 of less than 10 nM.

Take `COc1ccc(F)c(NC2CCN(c3ccc(-c4cn[nH]c4)cc3)C2=O)c1` (single isomer, unassigned) [Example 240, 1-(4-(1H-pyrazol-4-yl)phenyl)-3-((2-fluoro-5-methoxyphenyl)amino)pyrrolidin-2-one]: the IC50 was in the range of 10 to 100 nM.

`CCc1cc(N2CCC(Nc3ccc(F)c(OC)c3)C2=O)ccc1-c1cn[nH]c1` (single isomer, unassigned) [Example 242, 1-(3-ethyl-4-(1H-pyrazol-4-yl)phenyl)-3-((4-fluoro-3-methoxyphenyl)amino) pyrrolidin-2-one] had an IC50 of 10 to 100 nM.

For the molecule `CNc1nc(N2CCC(Nc3cccc(OC)c3)C2=O)ccc1-c1cn[nH]c1` (single isomer, unassigned) [Example 254, 3-((3-methoxyphenyl)amino)-1-(6-(methylamino)-5-(1H-pyrazol-4-yl)pyridin-2-yl)pyrrolidin-2-one], the IC50 was in the range of 10 to 100 nM.
